Test results: patent US7115608B2, “Pyridinone and pyridinethione derivatives having HIV inhibiting properties” (Centre National de la Recherche Schentifique, priority 2000, dated 2006)

Assays:
mock-infected MT-4 cells = experiment: Cytotoxicity in mock-infected MT-4 cells (MTT); type: cell-based; details: concentration reducing absorbance of mock-infected MT-4 control by 50%
HIV-1 = details: for IC50: dose achieving 50% protection of HIV-infected MT-4 cells, MTT, OD 540 nm; for SI: selectivity index, ratio of CC50 to IC50
Protocol: A rapid, sensitive and automated assay procedure was used for the in vitro evaluation of anti-HIV agents. […] Inhibition of the HIV-induced cytopathic effect was used as the end point. The viability of both HIV- and mock-infected cells was assessed spectrophotometrically via the in situ reduction of 3-(4,5-dimethylthiazol-2-yl)-2,5-diphenyltetrazolium bromide (MTT). […] The percent protection achieved by the compound in HIV-infected cells was calculated by the following formula:
[formula] expressed in %, whereby (ODT)HIV is the optical density measured with a given concentration of the test compound in HIV-infected cells; (ODC)HIV is the optical density measured for the control untreated HIV-infected cells; (ODC)MOCK is the optical density measured for the control untreated mock-infected cells; all optical density values were determined at 540 nm. […] The ratio of CC50 to IC50 was defined as the selectivity index (SI).

Row | Compound | CC50 (mock-infected MT-4 cells) | IC50 (HIV-1) | SI (HIV-1)
1 | CCc1c(C)[nH]c(=O)c(I)c1Sc1cc(Cl)cc(Cl)c1 [compound 115] | 8000 nM | 2.5 nM | 3162
2 | CCc1c(C)[nH]c(=O)c(I)c1Oc1cccc(N)c1 [compound 121] | > 100000 nM | 10 nM | >10000
3 | CCc1c(C)[nH]c(=O)c(I)c1Oc1ccccc1 [compound 328] | > 100000 nM | 1.6 nM | >63096
4 | Cc1cc(C)cc(Oc2c(COCc3ccccc3)c(C)[nH]c(=O)c2I)c1 [compound 245] | > 100000 nM | 6.3 nM | >15849
5 | CCc1c(C)[nH]c(=O)c(C2CC2)c1Oc1cc(C)cc(C)c1 [compound 230] | 8000 nM | 6.3 nM | 1259
6 | CCc1c(C)[nH]c(=O)c(I)c1Oc1cccc(Br)c1 [compound 307] | > 32000 nM | 5 nM | >6310
7 | CC(=O)N1CCN(Cc2c(C)[nH]c(=O)c(I)c2Oc2cc(C)cc(C)c2)CC1 [compound 701] | 63000 nM | 10 nM | 6310
8 | CCc1c(C)[nH]c(=O)c(I)c1Oc1cccc([N+](=O)[O-])c1 [compound 297] | > 32000 nM | 4 nM | >7943
9 | Cc1cc(C)cc(Oc2c(CNC=O)c(C)[nH]c(=O)c2I)c1 [compound 219] | > 32000 nM | 10 nM | >3162
10 | CCOC(=O)NCc1c(C)[nH]c(=O)c(I)c1Oc1cc(C)cc(C)c1 [compound 218] | > 10000 nM | 7.9 nM | >1259
11 | CCOCc1c[nH]c(=O)c(I)c1Oc1cc(C)cc(C)c1 [compound 256] | > 10000 nM | 2 nM | >5012
12 | CCc1c(C)[nH]c(=O)c(Br)c1Sc1cc(C)cc(C)c1 [compound 109] | 32000 nM | 2.5 nM | 12589
13 | Cc1cc(C)cc(Oc2c(CCCOCc3ccccc3)c(C)[nH]c(=O)c2I)c1 [compound 250] | 25000 nM | 5 nM | 5012
14 | CCc1c(C)[nH]c(=O)c(I)c1Oc1cccc(C=O)c1 [compound 321] | > 100000 nM | 6.3 nM | >15849
15 | CCc1c(C)[nH]c(=O)c(I)c1Oc1cccc(/C=C/C=C/C#N)c1 [compound 299] |  | 2.5 nM | 32
16 | Cc1cccc(Sc2c3c([nH]c(=O)c2I)CCCCC3)c1 [compound 221] | > 20000 nM | 6.3 nM | >3162
17 | Cc1cccc(Sc2c3c([nH]c(=O)c2I)CCCC3)c1 [compound 222] | 2000 nM | 7.9 nM | 251
18 | Cc1cc(C)cc(Sc2c(Cn3ccnc3)c(C)[nH]c(=O)c2I)c1 [compound 606] | 20000 nM | 1.3 nM | 15849
19 | CCc1c(C)[nH]c(=O)c(I)c1Sc1cccc(C)c1 [compound 88] | > 100000 nM | 2.5 nM | >39811
20 | CCOC(=O)CSCc1c(C)[nH]c(=O)c(I)c1Oc1cc(C)cc(C)c1 [compound 99] | > 100000 nM | 10 nM | >10000
21 | CCc1c(C)[nH]c(=O)c(I)c1Cc1cccc(C)c1 [compound 286] | > 32000 nM | 2.5 nM | >12589

Row | Compound | CC50 (mock-infected MT-4 cells) | IC50 (HIV-1) | SI (HIV-1)
22 | COc1ccccc1Cc1c(C)[nH]c(=O)c(I)c1Oc1cc(C)cc(C)c1 [compound 249] | > 32000 nM | 1.3 nM | >25119
23 | CCc1c(C)[nH]c(=O)c(OC)c1Oc1cc(C)cc(C)c1 [compound 277] | > 100000 nM | 2.5 nM | >39811
24 | CCc1c(C)[nH]c(=O)c(C(F)(F)F)c1Oc1cc(C)cc(C)c1 [compound 409] | 40000 nM | 3.2 nM | 12589
25 | Cc1cc(C)cc(Oc2c(CN3CCN(C(=O)c4ccco4)CC3)c(C)[nH]c(=O)c2I)c1 [compound 700] | > 8000 nM | 7.9 nM | >1000
26 | Cc1cc(C)cc(Oc2c(C=CC#N)c(C)[nH]c(=O)c2I)c1 [compound 140] | > 10000 nM | 6.3 nM | >1585
27 | COCCc1c(C)[nH]c(=O)c(I)c1Oc1cc(C)cc(C)c1 [compound 264] | > 10000 nM | 1 nM | >10000
28 | Cc1cc(C)cc(Oc2c(CNC(=O)c3cc4ccccc4o3)c(C)[nH]c(=O)c2I)c1 [compound 143] | > 10000 nM | 6.3 nM | >1585
29 | Cc1cc(C)cc(Sc2c(Cn3cccc3)c(C)[nH]c(=O)c2I)c1 [compound 618] | 50000 nM | 2 nM | 25119
30 | Cc1cc(C)cc(Oc2c(CCCO)c(C)[nH]c(=O)c2I)c1 [compound 242] | > 100000 nM | 0.6 nM | >158489
31 | CCc1c(COC(N)=O)[nH]c(=O)c(I)c1Oc1cc(C)cc(C)c1 [compound 105] | > 10000 nM | 2 nM | >5012
32 | Cc1cc(C)cc(Oc2c(COCCO)c(C)[nH]c(=O)c2I)c1 [compound 254] | > 32000 nM | 2 nM | >15849
33 | CCc1c(CCCO)[nH]c(=O)c(I)c1Oc1cc(C)cc(C)c1 [compound 217] | > 10000 nM | 6.3 nM | >1585
34 | Cc1cc(C)cc(Sc2c(/C=N/OCc3ccccc3)c(C)[nH]c(=O)c2I)c1 [compound 31] | > 100000 nM | 7.9 nM | >12589
35 | CCc1c(C)[nH]c(=O)c(Br)c1Oc1cc(C)cc(C)c1 [compound 284] | > 10000 nM | 2 nM | >5012
36 | CON=Cc1c(C)[nH]c(=O)c(I)c1Sc1cc(C)cc(C)c1 [compound 46] | > 100000 nM | 2 nM | >50119
37 | CCc1c(C)[nH]c(=O)c(I)c1Oc1cccc(/C=C/C#N)c1 [compound 319] | > 100000 nM | 2 nM | >50119
38 | Cc1cc(C)cc(Oc2c(CSCc3ccco3)c(C)[nH]c(=O)c2I)c1 [compound 375] | > 100000 nM | 1.3 nM | >79433
39 | C=Cc1cccc(Oc2c(CC)c(C)[nH]c(=O)c2I)c1 [compound 296] | 25000 nM | 2 nM | 12589
40 | CCc1c(C)[nH]c(=O)c(I)c1Oc1cc(C)cc(/C=C/C#N)c1 [compound 551] | 13000 nM | 1 nM | 12589
41 | CCc1c(C)[nH]c(=O)c(Sc2ccccc2)c1Oc1cc(C)cc(C)c1 [compound 280] | 25000 nM | 10 nM | 2512
42 | CCc1c(C)[nH]c(=O)c(I)c1Oc1cc(C)cc(CCl)c1 [compound 81] | 13000 nM | 6.3 nM | 1995

Row | Compound | CC50 (mock-infected MT-4 cells) | IC50 (HIV-1) | SI (HIV-1)
43 | Cc1cc(C)cc(Oc2c(COCc3ccsc3)c(C)[nH]c(=O)c2I)c1 [compound 244] | > 100000 nM | 4 nM | >25119
44 | CCc1c(C)[nH]c(=O)c(I)c1Oc1cc(C)cc(/C=C/C#N)c1 [compound 83] | 8000 nM | 2.5 nM | 3162
45 | CCc1c[nH]c(=O)c(I)c1Oc1cccc(C)c1 [compound 314] | > 32000 nM | 7.9 nM | >3981
46 | Cc1cc(C)cc(Sc2c(Cn3cccn3)c(C)[nH]c(=O)c2I)c1 [compound 589] | > 10000 nM | 1.3 nM | >7943
47 | Cc1cc(C)cc(Oc2c(CSCc3ccccc3)c(C)[nH]c(=O)c2I)c1 [compound 92] | > 32000 nM | 6.3 nM | >5012
48 | Cc1cc(C)cc(Oc2c(CN3CCN(c4ccccn4)CC3)c(C)[nH]c(=O)c2I)c1 [compound 696] | > 40000 nM | 15.8 nM | >2512
49 | CCc1c(C)[nH]c(=O)c(SC)c1Oc1cc(C)cc(C)c1 [compound 272] | 25000 nM | 2 nM | 12589
50 | CCc1c(C)[nH]c(=O)c(I)c1Oc1cccc(C)c1 [compound 306] | > 32000 nM | 1.6 nM | >19953
51 | CCOC(=O)c1c(Oc2cc(C)cc(C)c2)c(CC)c(C)[nH]c1=O [compound 324] | 32000 nM | 5 nM | 6310
52 | Cc1cc(C)cc(Oc2c(Cn3cncn3)c(C)[nH]c(=O)c2I)c1 [compound 574] | > 100000 nM | 2 nM | >50119
53 | CCc1c(C)[nH]c(=O)c(I)c1Oc1cc(/C(C)=C/C#N)cc(/C(C)=C/C#N)c1 [compound 684] | > 100000 nM | 0.8 nM | >125893
54 | CC(=O)c1ccc(N2CCN(Cc3c(C)[nH]c(=O)c(I)c3Oc3cc(C)cc(C)c3)CC2)cc1 [compound 694] | 63000 nM | 10 nM | 
55 | CON=Cc1c(C)[nH]c(=O)c(I)c1Oc1cc(C)cc(C)c1 [compound 232] | > 32000 nM | 6.3 nM | >5012
56 | Cc1cc(C)cc(Oc2c(CCO)c(C)[nH]c(=O)c2I)c1 [compound 241] | > 100000 nM | 1.6 nM | >63096
57 | CCc1c(C)[nH]c(=O)c(I)c1Oc1cccc(C=CC=NO)c1 [compound 309] | 10000 nM | 6.3 nM | 1585
58 | Cc1cc(C)cc(Sc2c(CSCc3cccs3)c(C)[nH]c(=O)c2I)c1 [compound 8] | > 100000 nM | 10 nM | >10000
59 | Cc1cc(C)cc(Oc2c(Cn3ccnn3)c(C)[nH]c(=O)c2I)c1 [compound 713] | > 100000 nM | 2.5 nM | >39811
60 | CCSCc1c(C)[nH]c(=O)c(I)c1Oc1cc(C)cc(C)c1 [compound 124] | > 10000 nM | 1.3 nM | >7943
61 | CCc1c(C)[nH]c(=O)c(I)c1Oc1cccc(CO)c1 [compound 322] | > 100000 nM | 6.3 nM | >15849
